PubChem BioAssay AID270 (DTP/NCI, 2004)
Records with an inconclusive call do not appear.

Test system: BDF1 mice, s.c. Lewis lung carcinoma, T/C %
Assay: NCI In Vivo Anticancer Drug Screen. Data for tumor model Lewis Lung Carcinoma (subcutaneous) in B6D2F1 (BDF1) mice
Summary of the method: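 Tumor-bearing mice were treated with test compound, and either survival or tumor size was recorded. Values are the treated-group measurement divided by that of the vehicle-treated control group.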

[1] = endpoint: mean tumor weight, dose: 15.0 mg/kg/injection, schedule: Q01DX011 (ip), vehicle: saline, higher = larger tumour
[2] = endpoint: mean tumor weight, dose: 37.0 mg/kg/injection, schedule: Q01DX011 (ip), vehicle: other, higher = larger tumour
[3] = endpoint: mean tumor weight, dose: 83.0 mg/kg/injection, schedule: Q01DX011 (ip), vehicle: other, higher = larger tumour
[4] = endpoint: mean tumor weight, dose: 125.0 mg/kg/injection, schedule: Q01DX011 (ip), vehicle: other, higher = larger tumour

Nc1nc(SN=Nc2ccc(S(=O)(=O)O)cc2)c2[nH]cnc2n1
T/C (endpoint: mean tumor weight, dose: 1.0 mg/kg/injection, schedule: Q01DX011 (ip), vehicle: saline, higher = larger tumour): 78 % of control
T/C (endpoint: mean tumor weight, dose: 5.0 mg/kg/injection, schedule: Q01DX011 (ip), vehicle: saline, higher = larger tumour): 65 % of control
T/C (endpoint: mean tumor weight, dose: 9.0 mg/kg/injection, schedule: Q01DX011 (ip), vehicle: saline, higher = larger tumour): 40 % of control
T/C [1]: 40 % of control

CC1=C/C(O)CC(=O)Cc2nc(co2)C(=O)N2CCC=C2C(=O)OC(C(C)C)C(C)/C=C\C(=O)NC/C=C\1 (centres undefined)
T/C (endpoint: median survival time, dose: 0.5 micrograms/kg/injection, schedule: Q01DX009 (ip), vehicle: saline, higher = longer survival): 103 % of control
T/C (endpoint: median survival time, dose: 1.0 micrograms/kg/injection, schedule: Q01DX009 (ip), vehicle: saline, higher = longer survival): 94 % of control
T/C (endpoint: median survival time, dose: 2.0 micrograms/kg/injection, schedule: Q01DX009 (ip), vehicle: saline, higher = longer survival): 98 % of control
T/C (endpoint: median survival time, dose: 4.0 micrograms/kg/injection, schedule: Q01DX009 (ip), vehicle: saline, higher = longer survival): 99 % of control

CC(=O)O[C@@H]1[C@@H](O)[C@H]2O[C@@H]3C=C(C)CC[C@]3(CO)[C@]1(C)[C@@]21CO1
T/C (endpoint: median survival time, dose: 1.25 mg/kg/injection, schedule: Q01DX009 (ip), vehicle: saline with Tween-80, higher = longer survival): 92 % of control
T/C (endpoint: median survival time, dose: 2.5 mg/kg/injection, schedule: Q01DX009 (ip), vehicle: saline with Tween-80, higher = longer survival): 100 % of control
T/C (endpoint: median survival time, dose: 5.0 mg/kg/injection, schedule: Q01DX009 (ip), vehicle: saline with Tween-80, higher = longer survival): 97 % of control

c1ccc(OP(Oc2ccccc2)Oc2ccccc2)cc1
T/C [2]: 110 % of control
T/C (endpoint: mean tumor weight, dose: 55.0 mg/kg/injection, schedule: Q01DX011 (ip), vehicle: other, higher = larger tumour): 103 % of control
T/C [3]: 91 % of control
T/C [4]: 79 % of control

CC(C)(C)C(=O)O
T/C [2]: 75 % of control
T/C [3]: 159 % of control
T/C [4]: 92 % of control

CCOC(=O)c1c[nH]c2c(Cl)c(C)ccc2c1=O
T/C (endpoint: mean tumor weight, dose: 104.0 mg/kg/injection, schedule: Q01DX011 (ip), vehicle: other, higher = larger tumour): 106 % of control
T/C (endpoint: mean tumor weight, dose: 155.0 mg/kg/injection, schedule: Q01DX011 (ip), vehicle: other, higher = larger tumour): 111 % of control
T/C (endpoint: mean tumor weight, dose: 350.0 mg/kg/injection, schedule: Q01DX011 (ip), vehicle: other, higher = larger tumour): 75 % of control

Fc1ccc(NC(=S)Nc2cc(Cl)cc(Cl)c2)cc1
T/C (endpoint: mean tumor weight, dose: 7.5 mg/kg/injection, schedule: Q01DX011 (ip), vehicle: carboxymethylcellulose (CMC), higher = larger tumour): 60 % of control

C=C1C(=O)OC2CC1C(O)C/C(C)=C/CC/C(C)=C/C(O)CC2C (centres undefined)
T/C (endpoint: median survival time, dose: 1.56 mg/kg/injection, schedule: Q01DX009 (ip), vehicle: Klucel (hydroxypropylcellulose) (HPC), higher = longer survival): 90 % of control
T/C (endpoint: median survival time, dose: 3.12 mg/kg/injection, schedule: Q01DX009 (ip), vehicle: Klucel (hydroxypropylcellulose) (HPC), higher = longer survival): 108 % of control
T/C (endpoint: median survival time, dose: 6.25 mg/kg/injection, schedule: Q01DX009 (ip), vehicle: Klucel (hydroxypropylcellulose) (HPC), higher = longer survival): 93 % of control
T/C (endpoint: median survival time, dose: 12.5 mg/kg/injection, schedule: Q01DX009 (ip), vehicle: Klucel (hydroxypropylcellulose) (HPC), higher = longer survival): 92 % of control
T/C (endpoint: median survival time, dose: 25.0 mg/kg/injection, schedule: Q01DX009 (ip), vehicle: Klucel (hydroxypropylcellulose) (HPC), higher = longer survival): 99 % of control

CC(/C=N/N=C(N)N)=N\N=C(N)N
T/C [1]: 119 % of control
T/C (endpoint: mean tumor weight, dose: 30.0 mg/kg/injection, schedule: Q01DX011 (ip), vehicle: saline, higher = larger tumour): 88 % of control
T/C (endpoint: mean tumor weight, dose: 60.0 mg/kg/injection, schedule: Q01DX011 (ip), vehicle: saline, higher = larger tumour): 46 % of control

Cc1c(C)c2c(c(C)c1O)CCC(C)(CCCC(C)CCCC(C)CCCC(C)C)O2 (centres undefined)
T/C (endpoint: median survival time, dose: 12.5 mg/kg/injection, schedule: Q02DX009 (ip), vehicle: olive oil, sesame oil, peanut oil, higher = longer survival): 116 % of control
T/C (endpoint: median survival time, dose: 25.0 mg/kg/injection, schedule: Q02DX009 (ip), vehicle: olive oil, sesame oil, peanut oil, higher = longer survival): 100 % of control
T/C (endpoint: median survival time, dose: 50.0 mg/kg/injection, schedule: Q02DX009 (ip), vehicle: olive oil, sesame oil, peanut oil, higher = longer survival): 108 % of control
T/C (endpoint: median survival time, dose: 100.0 mg/kg/injection, schedule: Q02DX009 (ip), vehicle: olive oil, sesame oil, peanut oil, higher = longer survival): 104 % of control
T/C (endpoint: median survival time, dose: 200.0 mg/kg/injection, schedule: Q02DX009 (ip), vehicle: olive oil, sesame oil, peanut oil, higher = longer survival): 122 % of control
T/C (endpoint: median survival time, dose: 400.0 mg/kg/injection, schedule: Q02DX009 (ip), vehicle: olive oil, sesame oil, peanut oil, higher = longer survival): 118 % of control

COc1cccc(/C=N/C(=S)NC2(C)C3CCC(C3)C2(C)C)c1O (centres undefined)
T/C (endpoint: median survival time, dose: 6.25 mg/kg/injection, schedule: Q01DX009 (ip), vehicle: olive oil, sesame oil, peanut oil, higher = longer survival): 98 % of control
T/C (endpoint: median survival time, dose: 12.5 mg/kg/injection, schedule: Q01DX009 (ip), vehicle: olive oil, sesame oil, peanut oil, higher = longer survival): 94 % of control
T/C (endpoint: median survival time, dose: 100.0 mg/kg/injection, schedule: Q01DX009 (ip), vehicle: olive oil, sesame oil, peanut oil, higher = longer survival): 90 % of control
